The experiment deals with T1, 14-3-3ζ/ERRγ peptide (Homo sapiens, UniProt P63104).
T1 construct: made in house; host or cells: NiCo21 (DE3) E. coli
In words: FA peptide screen, 14-3-3ζ titration to client peptide and compound: ERRγ. The class given is binding. To be noted: 250 μM compound, 100 nM peptide; +1 Cys. On the procedure: Since the hub protein 14-3-3 binds to hundreds of phosphoprotein partners, selectivity of PPI stabilization is a major challenge. The interplay of chemical reactivity, and the topology and functionality of the composite binding pocket shaped by 14-3-3 and Tau potentially provide entries towards selective stabilization. […] Here, 14-3-3ζ was titrated to a constant concentration of client peptide (100 nM) and compound (250 μM) to determine the SF250μM values for the particular 14-3-3 PPI. A variety of 14-3-3 binding proteins was represented in this client panel whereby the size and hydrophobicity of the +1 amino acid were varied. […]
chromatography (HisTrap high performance cartridges, Cytiva). […] Dialyzed protein was concentrated to ∼40 mg/mL, analyzed by Q -Tof LC/MS, and aliquots were flash -frozen for storage at −80 °C. […]
0.1% (v/v) Tween20, 0.1% (w/v) BSA). […] Measurements were performed directly after plate preparation, using a Tecan SPARK plate reader at room temperature ( λex: 485±20 nm; λem: 535±25 nm; mirror: automatic; flashes: 30; settle time: 1 ms; gain: optimal; Z -position: calculated from well). […] All data were analyzed using GraphPad Prism (10.0.1) and fitted with a four -parameter logistic model (4PL) to determine binding affinities (dissociation constant, KD). […]
Fluorescence Anisotropy – peptide screen […]

T1 sequence (P63104 whole entry, other chains not shown): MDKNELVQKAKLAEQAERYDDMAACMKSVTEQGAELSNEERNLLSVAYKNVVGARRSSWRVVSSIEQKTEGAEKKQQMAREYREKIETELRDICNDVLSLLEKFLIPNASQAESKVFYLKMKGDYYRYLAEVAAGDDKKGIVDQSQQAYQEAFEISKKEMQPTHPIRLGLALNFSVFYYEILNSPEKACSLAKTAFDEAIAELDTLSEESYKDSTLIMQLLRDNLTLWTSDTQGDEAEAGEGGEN

Consider `CCc1ccc(-c2nccn2-c2ccc(C=O)c(Br)c2)cc1` [Compound 18], for which the “stabilization of 14-3-3/ERRγ peptide (in words)” value is “did not show significant stabilizing activity”.

(Values after paper PMC11892739, “Site-specific molecular glues for the 14-3-3/Tau pS214 protein–protein interaction via reversible covalent imine tethering” (RSC Medicinal Chemistry, 2025).)
